From patent EP0664129A2, “Epicholesterol for treating dyslipidemia” (PHARMACIA S.p.A., priority 1994, dated 1995)

Tests used:
[1] = system: Rats; assay: Cholesterol / epicholesterol enriched diets in rats: plasma and liver total cholesterol (enzymatic colorimetric method); format: in vivo, Male Sprague Dawley rats; conditions: 4 days
Method: (§1) Male Sprague Dawley rats weighing 250 g and male CD mice weighing 22-25 g (Charles River) were housed in rooms maintained at 21±1°C with relative humidity 50-60% and a 12 hours light-dark cycle. After a week of housing, the animals were allocated to the different experimental groups and received one of the following diets: • a) rat or mouse chow diet, containing 0.5% sodium cholate; • b) cholesterol enriched diet, containing 0.5% sodium cholate and 1.5% cholesterol; • c) epicholesterol enriched diet, containing 0.5% sodium cholate and 1.5% epicholesterol; • d) epicholesterol and cholesterol enriched diet containing 0.5% sodium cholate and 1.5% of both sterols. Weight of the animals and food consumption were recorded daily. After overnight fasting, the animals were anesthetized with sodium pentobarbital (50 mg/kg body weight) and exsanguinated from the abdominal aorta. Plasma was obtained by low speed (3000 g for 10 min) centrifugation of whole blood containing Na₂EDTA as anticoagulant. Plasma lipid extracts were prepared according to Bligh E.G., Dyer W.J., Can. J. Bioch. Physiol, 31, 911, 1959. Liver specimens (500 mg) were excised from the lateral liver lobe, washed in ice-cold saline, and immediately placed on dry-ice and stored at -80°C. They were extracted according to the method of Folch J. et al., J. Biol. Chem. , 226, 497, 1957, as modified by Carlson L.A., J. Atheroscler. Res., 3, 334, 1963. Plasma and liver total cholesterol content (i.e. unesterified and esterified cholesterol fractions) were determined by the enzymatic colorimetric method of Allain et al., Clin. Chem., 20, 470, 1974. In this assay epicholesterol is not read.

[2] = system: Mice; assay: Cholesterol / epicholesterol enriched diets in mice: plasma and liver total cholesterol (enzymatic colorimetric method); format: in vivo, male CD mice; conditions: 4 days
Method: as §1

[3] = Gas liquid chromatography of unesterified sterols in plasma and liver of mice fed enriched diets; format: in vivo; conditions: for Percent Distribution Epicholesterol (unesterified sterol content): 1.5% sterol enriched diet, Mean ± SD, n=3, nd: not detectable
Method: Male Sprague Dawley rats weighing 250 g and male CD mice weighing 22-25 g (Charles River) were housed in rooms maintained at 21±1°C with relative humidity 50-60% and a 12 hours light-dark cycle. After a week of housing, the animals were allocated to the different experimental groups and received one of the following diets: • a) rat or mouse chow diet, containing 0.5% sodium cholate; • b) cholesterol enriched diet, containing 0.5% sodium cholate and 1.5% cholesterol; • c) epicholesterol enriched diet, containing 0.5% sodium cholate and 1.5% epicholesterol; • d) epicholesterol and cholesterol enriched diet containing 0.5% sodium cholate and 1.5% of both sterols. Weight of the animals and food consumption were recorded daily.
After overnight fasting, the animals were anesthetized with sodium pentobarbital (50 mg/kg body weight) and exsanguinated from the abdominal aorta. Plasma was obtained by low speed (3000 g for 10 min) centrifugation of whole blood containing Na₂EDTA as anticoagulant.
Plasma lipid extracts were prepared according to Bligh E.G., Dyer W.J., Can. J. Bioch. Physiol, 31, 911, 1959.
Liver specimens (500 mg) were excised from the lateral liver lobe, washed in ice-cold saline, and immediately placed on dry-ice and stored at -80°C. They were extracted according to the method of Folch J. et al., J. Biol. Chem. , 226, 497, 1957, as modified by Carlson L.A., J. Atheroscler. Res., 3, 334, 1963.
Lipids extract from plasma and liver were separated by TLC on Silica Gel plates from Merck using petroleum ether 40-70°/diethyl ether/acetic acid (80:20:1) as developing system. Cholesterol, epicholesterol, dihydrocholesterol, and 7-keto-cholesterol as representative of the oxysterol class of sterols migrated with very similar Rf and could be recovered as a single area from the TLC plate. These sterols were eluted from the silica using chloroform and were dried by evaporation under N₂. The samples were redissolved in pyridine and derivatizated adding an equal volume of MBSTFA [N-methyl-N(tert-butyldimethylsilyl)Trifluoroacetamide].
After 20 minutes at room temperature the samples were analyzed by GLC according to Smith N.B., Lipids, 17, 464, 1982, on a Carlo Erba Mega 3000 gaschromatographer equipped with a flame ionization detector and a 25 m OV1 column (0.2 mm id., film thickness 0.2-0.25). He was used as carrier at 100 Kps. The splitless injection technique was used and 1-2 µl sample were injected. […] The injection and the detector temperatures were respectively 340°C and 350°C. Retention time of cholesterol, epicholesterol, dihydrocholesterol and 7keto-cholesterol were determined by injecting pure sterols.

[4] = Micellar cholesterol solubilization in vitro; format: physicochemical; conditions: for Micellar Cholesterol Content: cholesterol 1 mM
Method: The micellar solubility of cholesterol in vitro was measured by the method of Ikeda I., Tanabe Y. and Sugano M. , J. Nutr. Sci. Vitaminol. 35, 361, 1989. In detail, cholesterol (1 mM) or mixture of cholesterol (1 mM) and epicholesterol (0.5-8 mM) were sonicated for 2 minutes at 37°C in 15 mM NaPO₄ buffer, pH 7.4, containing 0.6 mM egg yolk lecithin, 1 mM oleic acid, 0.5 mM monolein, 6.6 mM Na taurocholate, and 132 mM NaCl. After incubation at 37°C overnight, the solutions were subjected to ultracentrifugation (100,000 g for 60 min at 37°C). Samples of the supernatant were assayed for the cholesterol content.

[5] = diet with 0.5% sodium cholate and 1.5% of the single sterol
[6] = diet with 0.5% sodium cholate and 1.5% of the single sterol, listed as epicholesterol
[7] = diet with 0.5% sodium cholate and 1.5% of the single sterol, mean±spread
[8] = diet with 1.5% Cholesterol and 1.5% Epicholesterol together, 0.5% sodium cholate
[9] = diet with 1.5% Cholesterol and 1.5% Epicholesterol together, 0.5% sodium cholate, listed as epicholesterol
[10] = diet with 0.5% sodium cholate and 1.5% of the single sterol, listed as cholesterol

For `CC(C)CCC[C@@H](C)[C@H]1CC[C@H]2[C@@H]3CC=C4C[C@H](O)CC[C@]4(C)[C@H]3CC[C@]12C` [Epicholesterol, cholest-5-en-3α-ol], the “CHOLESTEROL CONCENTRATION IN LIVER” value [1, 5] was “°° 2.59±0.38 (n=3) mg/g fresh tissue”, the “CHOLESTEROL CONCENTRATION IN LIVER” value [1, 6] was “did not brought about any significant change” and the “CHOLESTEROL CONCENTRATION IN PLASMA” value [1, 7] was “°° 64±18 (n=3) mg/dl”. For the same compound, the “CHOLESTEROL CONCENTRATION IN PLASMA” value ([1]; diet with 0.5% sodium cholate and 1.5% of the single sterol, mean±spread, listed as epicholesterol) was “did not brought about any significant change”, the “CHOLESTEROL CONCENTRATION IN LIVER” value [1, 8] was “** 5.71±0.95 °° (n=3) □ mg/g fresh tissue” and the “CHOLESTEROL CONCENTRATION IN PLASMA” value [1, 8] was “**103±9 ° (n=3) □ mg/dl”. For the same compound, the “CHOLESTEROL CONCENTRATION IN LIVER” value [1, 9] was “significant decrease”, the “CHOLESTEROL CONCENTRATION IN PLASMA” value [1, 9] was “significant decrease” and the “CHOLESTEROL CONCENTRATION IN LIVER” value [2, 5] was “°° 2.58±0.16 (n=10) mg/g fresh tissue”. For the same compound, the “CHOLESTEROL CONCENTRATION IN PLASMA” value [2, 5] was “* 93±15 °°(n=10) mg/dl”, the “CHOLESTEROL CONCENTRATION IN LIVER” value [2, 6] was “did not brought about any significant change” and the “CHOLESTEROL CONCENTRATION IN PLASMA” value [2, 6] was “did not brought about any significant change”. For the same compound, the “CHOLESTEROL CONCENTRATION IN LIVER” value [2, 8] was “** 9.54±1.49 °° (n=10) □□ mg/g fresh tissue”, the “CHOLESTEROL CONCENTRATION IN PLASMA” value [2, 8] was “**115±26 □(n=10) mg/dl” and the “CHOLESTEROL CONCENTRATION IN LIVER” value [2, 9] was “significant decrease”. The “CHOLESTEROL CONCENTRATION IN PLASMA” value [2, 9] was “significant decrease”, the “absorption by the intestine” value ([3]; conclusion from plasma and liver sterol content of mice fed 1.5% epicholesterol diet) was “only minimally absorbed” and the “Percent Distribution Epicholesterol (unesterified sterol content)” value (shortened to “Percent Distribution Epicholesterol”) ([3]; mice liver) was 1.0±0.4%. The “Percent Distribution Epicholesterol” value ([3]; mice liver, listed as epicholesterol) was “only trace amount”, the “Percent Distribution Epicholesterol” value ([3]; mice plasma) was 2.6±1.5% and the “Percent Distribution Epicholesterol” value ([3]; mice plasma, listed as epicholesterol) was “only trace amount”. For the same compound, the “Micellar Cholesterol Content” value ([4]; Cholesterol-to-Epicholesterol Ratio 0.125) was 0.18 ± 0.02 mM, the “Micellar Cholesterol Content” value ([4]; Cholesterol-to-Epicholesterol Ratio 0.25) was 0.22 ± 0.03 mM and the “Micellar Cholesterol Content” value ([4]; Cholesterol-to-Epicholesterol Ratio 0.5) was 0.23 ± 0.06 mM. The “Micellar Cholesterol Content” value ([4]; Cholesterol-to-Epicholesterol Ratio 1) was 0.42 ± 0.03 mM, the “Micellar Cholesterol Content” value ([4]; Cholesterol-to-Epicholesterol Ratio 2, control (cholesterol only) 1.00 ± 0.05) was 0.71 ± 0.05 mM and the “decrease of cholesterol micellar solubility” value ([4]; cholesterol and epicholesterol in a 1 to 0.5 molar ratio) was “more than 30%”. For the same compound, the cholesterol micellar solubility ([4]; epicholesterol and cholesterol mixed together, all the concentrations tested of epicholesterol (0.5-8 mM)) was “significantly decreased”.

With `CC(C)CCC[C@@H](C)[C@H]1CC[C@H]2[C@@H]3CC=C4C[C@@H](O)CC[C@]4(C)[C@H]3CC[C@]12C` [Cholesterol] the “CHOLESTEROL CONCENTRATION IN LIVER” value [1, 5] was “**11.28±1.48 (n=7) mg/g fresh tissue”, the “CHOLESTEROL CONCENTRATION IN LIVER” value [1, 10] was “at least a fourfold increase” and the “CHOLESTEROL CONCENTRATION IN PLASMA” value [1, 7] was “**178±45 (n=7) mg/dl”. The “CHOLESTEROL CONCENTRATION IN PLASMA” value ([1]; diet with 0.5% sodium cholate and 1.5% of the single sterol, mean±spread, listed as cholesterol) was “rose significantly”, the “CHOLESTEROL CONCENTRATION IN LIVER” value [2, 5] was “**18.70±2.60 (n=10) mg/g fresh tissue” and the “CHOLESTEROL CONCENTRATION IN PLASMA” value [2, 5] was “**152±19 (n=10) mg/dl”. The “CHOLESTEROL CONCENTRATION IN LIVER” value [2, 10] was “at least a fourfold increase” and the “CHOLESTEROL CONCENTRATION IN PLASMA” value [2, 10] was “rose significantly”.
